Our source for the IC50 values is patent US9963458B2, “Indole and indoline-type piperidine compounds and uses thereof” (priority 2012, dated 2018).

What all share (type): in vitro ADME
Holding throughout (settings): procedure of Example 14

The target in one assay is T1, CYP1A2 (Homo sapiens, UniProt P05177).
T1 sequence (P05177 1-516): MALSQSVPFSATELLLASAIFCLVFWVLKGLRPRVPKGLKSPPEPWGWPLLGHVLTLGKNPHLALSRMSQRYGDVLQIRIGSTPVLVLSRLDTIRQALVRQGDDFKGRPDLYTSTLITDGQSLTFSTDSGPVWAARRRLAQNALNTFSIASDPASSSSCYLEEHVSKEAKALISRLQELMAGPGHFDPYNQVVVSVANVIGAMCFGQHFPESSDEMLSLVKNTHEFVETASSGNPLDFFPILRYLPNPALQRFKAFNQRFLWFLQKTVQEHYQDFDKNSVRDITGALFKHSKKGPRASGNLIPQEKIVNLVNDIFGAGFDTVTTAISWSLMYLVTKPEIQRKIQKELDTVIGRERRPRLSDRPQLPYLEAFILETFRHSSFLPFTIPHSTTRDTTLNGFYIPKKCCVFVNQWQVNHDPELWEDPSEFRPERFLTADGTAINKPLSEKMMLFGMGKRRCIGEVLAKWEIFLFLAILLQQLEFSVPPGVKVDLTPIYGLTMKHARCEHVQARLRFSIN
Briefly: Cytochrome P450 inhibition, pooled human hepatic microsome.

A further assay has as its target T2, CYP2D6 (Homo sapiens, UniProt P10635).
T2 construct: 0.2 mg protein/mL pooled human hepatic microsome enzyme; from tissue; host or cells: pooled human hepatic microsomes
Briefly: Cytochrome P450 inhibition, pooled human hepatic microsome (O-demethylation of dextromethorphan).

The next assay deals with T3, CYP2C9 (Homo sapiens, UniProt P11712).
T3 construct: 0.2 mg protein/mL pooled human hepatic microsome enzyme; from tissue; host or cells: pooled human hepatic microsomes
T3 sequence (P11712 whole entry): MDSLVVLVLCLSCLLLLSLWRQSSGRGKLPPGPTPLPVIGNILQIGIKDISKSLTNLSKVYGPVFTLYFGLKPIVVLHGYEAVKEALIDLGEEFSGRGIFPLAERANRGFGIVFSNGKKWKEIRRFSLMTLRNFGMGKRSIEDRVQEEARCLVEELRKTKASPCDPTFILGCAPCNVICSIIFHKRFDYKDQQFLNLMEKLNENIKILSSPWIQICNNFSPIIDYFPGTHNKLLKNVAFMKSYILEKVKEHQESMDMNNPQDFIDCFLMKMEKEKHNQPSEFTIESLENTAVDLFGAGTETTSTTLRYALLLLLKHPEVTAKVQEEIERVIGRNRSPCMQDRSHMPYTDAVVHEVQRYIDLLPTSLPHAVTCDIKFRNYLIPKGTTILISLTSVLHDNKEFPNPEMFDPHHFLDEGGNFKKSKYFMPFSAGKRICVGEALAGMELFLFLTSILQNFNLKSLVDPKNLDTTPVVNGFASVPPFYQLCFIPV
The assay is described as follows: Cytochrome P450 inhibition, pooled human hepatic microsome.

A further assay concerns the target T4, CYP3A4 (Homo sapiens, UniProt P08684).
T4 construct: 0.2 mg protein/mL pooled human hepatic microsome enzyme; from tissue; host or cells: pooled human hepatic microsomes
The assay is described as above.

T2 sequence (P10635 whole entry): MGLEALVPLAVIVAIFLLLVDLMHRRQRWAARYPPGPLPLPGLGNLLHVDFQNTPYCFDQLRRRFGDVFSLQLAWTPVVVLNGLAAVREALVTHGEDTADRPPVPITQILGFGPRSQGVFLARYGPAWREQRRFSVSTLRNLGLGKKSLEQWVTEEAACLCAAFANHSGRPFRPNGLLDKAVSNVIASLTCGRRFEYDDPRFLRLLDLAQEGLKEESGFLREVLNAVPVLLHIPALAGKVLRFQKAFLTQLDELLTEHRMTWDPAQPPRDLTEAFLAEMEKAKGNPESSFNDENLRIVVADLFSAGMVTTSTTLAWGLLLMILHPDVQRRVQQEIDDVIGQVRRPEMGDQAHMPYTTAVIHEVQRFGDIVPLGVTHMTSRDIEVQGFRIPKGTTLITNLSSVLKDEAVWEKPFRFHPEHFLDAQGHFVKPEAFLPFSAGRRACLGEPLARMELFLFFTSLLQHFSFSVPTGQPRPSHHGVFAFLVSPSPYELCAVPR
T4 sequence (P08684 whole entry): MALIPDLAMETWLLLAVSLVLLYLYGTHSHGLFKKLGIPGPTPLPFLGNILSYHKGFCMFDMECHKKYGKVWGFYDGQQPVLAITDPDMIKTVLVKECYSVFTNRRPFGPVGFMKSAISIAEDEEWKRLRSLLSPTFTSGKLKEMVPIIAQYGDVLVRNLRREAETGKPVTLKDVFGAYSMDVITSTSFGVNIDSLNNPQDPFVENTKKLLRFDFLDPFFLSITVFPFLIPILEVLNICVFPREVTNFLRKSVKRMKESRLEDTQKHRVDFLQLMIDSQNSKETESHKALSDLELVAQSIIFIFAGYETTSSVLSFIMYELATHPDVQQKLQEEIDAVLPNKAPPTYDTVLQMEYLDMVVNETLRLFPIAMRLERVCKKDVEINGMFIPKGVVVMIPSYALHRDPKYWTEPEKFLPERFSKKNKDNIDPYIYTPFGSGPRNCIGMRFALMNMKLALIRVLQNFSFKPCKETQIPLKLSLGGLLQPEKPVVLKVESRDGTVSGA

For `O=C(O)Cc1cn([C@H]2C[C@H]3CCC[C@@H](C2)N3[C@H]2C[C@@H]3CCC[C@@H](C3)C2)c2ccccc12` [Compound 7], the IC50 (in general, the concentration that inhibits the measured activity by half) is over 20 µM against CYP1A2, 14.6 µM against CYP2D6, over 20 µM at CYP2C9 and over 20 µM against CYP3A4.
Turning to `O=C(O)Cc1cn([C@H]2C[C@H]3CCC[C@@H](C2)N3C2CCCCCCCCC2)c2ccccc12` [Compound 23, 2-(1-((1R,3r,5S)-9-cyclodecyl-9-azabicyclo[3.3.1]nonan-3-yl)-1H-indol-3-yl)acetic acid], the half-maximal inhibitory concentration (IC50) was over 20 µM against CYP1A2, 1.15 µM against CYP2D6, over 20 µM against CYP2C9 and over 20 µM on CYP3A4.
In the case of `c1ccc2c(c1)ccn2[C@H]1C[C@H]2CCC[C@@H](C1)N2[C@H]1C[C@@H]2CCC[C@@H](C2)C1` [Compound 11], the IC50 at CYP1A2, against CYP2D6, against CYP2C9 and at CYP3A4 was over 20 µM throughout.
